Measurements as given in PMC10114980, “Triple targeting of mutant EGFR^L858R/T790M, COX-2, and 15-LOX: design and synthesis of novel quinazolinone tethered phenyl urea derivatives for anti-inflammatory and anticancer evaluation” (Journal of Enzyme Inhibition and Medicinal Chemistry, 2023).
Several values for one entry are separate records, joined by “and”; a condition that tells them apart may be missing. Equal values may be shown once.

How the values were obtained:
NCI/ADR-RES = experiment: NCI single dose screen, NCI/ADR-RES; format: cell-based; settings: Homo sapiens, ovarian cancer, single dose 10^−5 M, read-out: growth inhibition percentage
In short: (§1)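 Single-dose test at 10^−5 M, run by the US NCI in its 60-cell-line human tumour panel under standard procedures.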

[1] = target: T1, double mutant EGFR^L858R/T790M (Homo sapiens, UniProt P00533, L858R/T790M); experiment: In vitro EGFR inhibition assay, double mutant; format: biochemical
T1 construct: purchased AssayQuant Technologies, Inc. (Marlboro, MA, USA)
T1 sequence (P00533 25-1210 T790M/L858R): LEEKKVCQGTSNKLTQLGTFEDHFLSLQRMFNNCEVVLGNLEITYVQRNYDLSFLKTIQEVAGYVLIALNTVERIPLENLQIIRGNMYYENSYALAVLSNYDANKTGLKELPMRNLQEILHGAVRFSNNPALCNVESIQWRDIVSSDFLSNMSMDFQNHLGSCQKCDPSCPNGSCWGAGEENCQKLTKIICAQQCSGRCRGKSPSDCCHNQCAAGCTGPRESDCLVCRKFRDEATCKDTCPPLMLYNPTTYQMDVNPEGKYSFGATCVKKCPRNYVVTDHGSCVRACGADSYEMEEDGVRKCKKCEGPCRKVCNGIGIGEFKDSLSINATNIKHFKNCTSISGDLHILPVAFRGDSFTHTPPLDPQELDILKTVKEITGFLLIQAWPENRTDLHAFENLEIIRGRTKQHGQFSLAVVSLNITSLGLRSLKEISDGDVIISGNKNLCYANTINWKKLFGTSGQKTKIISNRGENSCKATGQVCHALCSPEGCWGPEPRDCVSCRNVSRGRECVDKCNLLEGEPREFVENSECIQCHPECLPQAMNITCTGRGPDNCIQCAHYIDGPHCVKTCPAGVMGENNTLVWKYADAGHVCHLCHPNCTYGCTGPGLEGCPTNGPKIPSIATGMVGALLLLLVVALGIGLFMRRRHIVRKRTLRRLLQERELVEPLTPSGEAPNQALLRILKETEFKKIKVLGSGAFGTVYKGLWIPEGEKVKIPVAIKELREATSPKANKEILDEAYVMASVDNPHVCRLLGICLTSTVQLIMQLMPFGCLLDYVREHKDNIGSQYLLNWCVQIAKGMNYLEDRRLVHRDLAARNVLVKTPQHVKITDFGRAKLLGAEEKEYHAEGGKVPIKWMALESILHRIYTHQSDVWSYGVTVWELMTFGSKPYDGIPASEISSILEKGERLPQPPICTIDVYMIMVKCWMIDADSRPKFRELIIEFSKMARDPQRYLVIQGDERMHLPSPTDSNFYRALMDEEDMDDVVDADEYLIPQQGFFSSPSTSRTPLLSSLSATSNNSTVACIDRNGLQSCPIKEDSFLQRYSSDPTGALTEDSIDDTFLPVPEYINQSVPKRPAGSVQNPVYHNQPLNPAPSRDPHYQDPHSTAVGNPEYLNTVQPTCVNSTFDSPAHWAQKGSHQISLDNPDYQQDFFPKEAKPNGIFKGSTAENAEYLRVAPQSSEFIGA

M14 = experiment: NCI single dose screen, M14; format: cell-based; settings: Homo sapiens; M14, melanoma; single dose 10^−5 M; read-out: growth inhibition percentage
In short: as §1

NCI-H226 = experiment: NCI single dose screen, NCI-H226; format: cell-based; settings: Homo sapiens; NCI-H226, non-small cell lung cancer; single dose 10^−5 M; read-out: growth inhibition percentage
In short: as §1

MOLT-4 = experiment: NCI single dose screen, MOLT-4; format: cell-based; settings: Homo sapiens; MOLT-4, leukaemia; single dose 10^−5 M; read-out: growth inhibition percentage
In short: as §1

SR = experiment: NCI single dose screen, SR; format: cell-based; settings: Homo sapiens, leukaemia, single dose 10^−5 M, read-out: growth inhibition percentage
In short: as §1

MDA-MB-231/ATCC = experiment: NCI single dose screen, MDA-MB-231/ATCC; format: cell-based; settings: Homo sapiens, breast cancer, single dose 10^−5 M, read-out: growth inhibition percentage
In short: as §1

HCC-2998 = experiment: NCI single dose screen, HCC-2998; format: cell-based; settings: Homo sapiens; HCC-2998, colon cancer; single dose 10^−5 M; read-out: growth inhibition percentage
In short: as §1

[2] = test system: LPS-induced IL-6 production in RAW 264.7 cells; experiment: IL-6 production in LPS-activated RAW 264.7 cells (ELISA); format: cell-based; settings: LPS-activated RAW 264.7 cells treated with 25 µM of the compound
TK-10 = experiment: NCI single dose screen, TK-10; format: cell-based; settings: Homo sapiens; TK-10, renal cancer; single dose 10^−5 M; read-out: growth inhibition percentage
In short: as §1

SNB-75 = experiment: NCI single dose screen, SNB-75; format: cell-based; settings: Homo sapiens; SNB-75, CNS cancer; single dose 10^−5 M; read-out: growth inhibition percentage
In short: as §1

ACHN = experiment: NCI single dose screen, ACHN; format: cell-based; settings: Homo sapiens, renal cancer, single dose 10^−5 M, read-out: growth inhibition percentage
In short: as §1

CAKI-1 = experiment: NCI single dose screen, CAKI-1; format: cell-based; settings: Homo sapiens; CAKI-1, renal cancer; single dose 10^−5 M; read-out: growth inhibition percentage
In short: as §1

MALME-3M = experiment: NCI single dose screen, MALME-3M; format: cell-based; settings: Homo sapiens, melanoma, single dose 10^−5 M, read-out: growth inhibition percentage
In short: as §1

RPMI-8226 = experiment: NCI single dose screen, RPMI-8226; format: cell-based; settings: Homo sapiens; RPMI-8226, leukaemia; single dose 10^−5 M; read-out: growth inhibition percentage
In short: as §1

SW-620 = experiment: NCI single dose screen, SW-620; format: cell-based; settings: Homo sapiens; SW-620, colon cancer; single dose 10^−5 M; read-out: growth inhibition percentage
In short: as §1

K-562 = experiment: NCI single dose screen, K-562; format: cell-based; settings: Homo sapiens, K562; K-562, leukaemia; single dose 10^−5 M; read-out: growth inhibition percentage
In short: as §1

SK-MEL-28 = experiment: NCI single dose screen, SK-MEL-28; format: cell-based; settings: Homo sapiens; SK-MEL-28, melanoma; single dose 10^−5 M; read-out: growth inhibition percentage
In short: as §1

HL-60(TB) = experiment: NCI single dose screen, HL-60(TB); format: cell-based; settings: Homo sapiens, leukaemia, single dose 10^−5 M, read-out: growth inhibition percentage
In short: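 Data come from the NCI-60 one-dose screen, in which each compound was tested at 10^−5 M by standard NCI procedures.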

OVCAR-3 = experiment: NCI single dose screen, OVCAR-3; format: cell-based; settings: Homo sapiens; OVCAR-3, ovarian cancer; single dose 10^−5 M; read-out: growth inhibition percentage
In short: as §1

wild-type EGFR = target: T2, wild-type EGFR (Homo sapiens, UniProt P00533); experiment: In vitro EGFR inhibition assay, wild type; format: biochemical; settings: read-out: EGFR^WT IC50
T2 construct: purchased AssayQuant Technologies, Inc. (Marlboro, MA, USA)
T2 sequence (P00533 25-1210): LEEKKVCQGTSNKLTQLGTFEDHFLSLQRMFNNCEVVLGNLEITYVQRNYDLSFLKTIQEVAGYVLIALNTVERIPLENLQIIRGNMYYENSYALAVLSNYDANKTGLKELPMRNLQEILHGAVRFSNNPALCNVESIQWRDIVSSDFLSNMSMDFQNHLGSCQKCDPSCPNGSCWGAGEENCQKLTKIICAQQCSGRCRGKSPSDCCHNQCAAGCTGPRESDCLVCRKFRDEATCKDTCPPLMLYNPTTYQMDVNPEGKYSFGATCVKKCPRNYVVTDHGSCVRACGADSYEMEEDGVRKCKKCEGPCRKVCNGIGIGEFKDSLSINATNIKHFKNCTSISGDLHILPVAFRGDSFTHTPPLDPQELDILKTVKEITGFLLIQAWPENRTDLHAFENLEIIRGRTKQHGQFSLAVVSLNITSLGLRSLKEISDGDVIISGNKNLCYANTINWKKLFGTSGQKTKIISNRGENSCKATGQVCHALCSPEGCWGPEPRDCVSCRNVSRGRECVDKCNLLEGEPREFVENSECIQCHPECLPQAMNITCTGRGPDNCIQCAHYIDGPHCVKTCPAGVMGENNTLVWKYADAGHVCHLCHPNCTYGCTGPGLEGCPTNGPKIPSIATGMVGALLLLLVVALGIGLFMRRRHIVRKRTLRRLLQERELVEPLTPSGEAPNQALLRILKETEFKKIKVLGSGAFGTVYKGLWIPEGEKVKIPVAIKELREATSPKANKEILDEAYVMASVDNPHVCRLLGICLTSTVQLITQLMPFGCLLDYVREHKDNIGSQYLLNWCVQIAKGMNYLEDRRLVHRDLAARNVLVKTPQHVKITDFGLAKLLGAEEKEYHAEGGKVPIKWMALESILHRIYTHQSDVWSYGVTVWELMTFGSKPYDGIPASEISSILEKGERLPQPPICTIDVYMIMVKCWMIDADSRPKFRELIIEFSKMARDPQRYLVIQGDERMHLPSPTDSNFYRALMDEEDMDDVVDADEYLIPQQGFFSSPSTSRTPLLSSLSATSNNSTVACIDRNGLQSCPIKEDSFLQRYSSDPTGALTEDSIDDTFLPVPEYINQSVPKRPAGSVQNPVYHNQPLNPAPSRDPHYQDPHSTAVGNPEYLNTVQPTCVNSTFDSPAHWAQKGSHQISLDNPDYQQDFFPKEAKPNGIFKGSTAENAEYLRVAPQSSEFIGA

HS 578T = experiment: NCI single dose screen, HS 578T; format: cell-based; settings: Homo sapiens, breast cancer, single dose 10^−5 M, read-out: growth inhibition percentage
In short: as §1

OVCAR-4 = experiment: NCI single dose screen, OVCAR-4; format: cell-based; settings: Homo sapiens; OVCAR-4, ovarian cancer; single dose 10^−5 M; read-out: growth inhibition percentage
In short: as §1

BT-549 = experiment: NCI single dose screen, BT-549; format: cell-based; settings: Homo sapiens; BT-549, breast cancer; single dose 10^−5 M; read-out: growth inhibition percentage
In short: as §1

UACC-257 = experiment: NCI single dose screen, UACC-257; format: cell-based; settings: Homo sapiens; UACC-257, melanoma; single dose 10^−5 M; read-out: growth inhibition percentage
In short: as §1

SK-MEL-5 = experiment: NCI single dose screen, SK-MEL-5; format: cell-based; settings: Homo sapiens; SK-MEL-5, melanoma; single dose 10^−5 M; read-out: growth inhibition percentage
In short: as §1

[3] = test system: LPS-induced TNF-α production in RAW 264.7 cells; experiment: TNF-α production in LPS-activated RAW 264.7 cells (ELISA); format: cell-based
SK-OV-3 = experiment: NCI single dose screen, SK-OV-3; format: cell-based; settings: Homo sapiens; SK-OV-3, ovarian cancer; single dose 10^−5 M; read-out: growth inhibition percentage
In short: as §1

DU-145 = experiment: NCI single dose screen, DU-145; format: cell-based; settings: Homo sapiens; DU-145, prostate cancer; single dose 10^−5 M; read-out: growth inhibition percentage
In short: as §1

HT29 = experiment: NCI single dose screen, HT29; format: cell-based; settings: Homo sapiens, HT-29; HT29, colon cancer; single dose 10^−5 M; read-out: growth inhibition percentage
In short: as §1

SNB-19 = experiment: NCI single dose screen, SNB-19; format: cell-based; settings: Homo sapiens; SNB-19, CNS cancer; single dose 10^−5 M; read-out: growth inhibition percentage
In short: as §1

[4] = 25 µM, LPS-activated RAW 264.7 cells

`CN1c2ccccc2C(=O)N(NC(=O)Nc2ccc(F)cc2)C1c1ccc([N+](=O)[O-])cc1` (stereo not shown) [Compound 6o, 1-(4-Fluorophenyl)-3–(1-methyl-2-(4-nitrophenyl)-4-oxo-1,4-dihydroquinazolin-3(2H)-yl)urea] was tested, and the inhibition at 10 µM (NCI/ADR-RES) was < 10%, the IC50 ([1]; double mutant EGFR) was 36 ± 2.58 µM and the “Selectivity (SI)” value ([1]; ratio of the IC50 values EGFR^WT/EGFR^L858R/T790M) was 1.5. The inhibition at 10 µM (M14) was 18%, the inhibition at 10 µM (NCI-H226) was < 10% and the inhibition at 10 µM (MOLT-4) was 20.4%. For the same compound, the inhibition at 10 µM (SR) was 12.2%, the inhibition at 10 µM (MDA-MB-231/ATCC) was 22.5% and the inhibition at 10 µM (HCC-2998) was < 10%. The IL-6 concentration [2] was 37.23 pg/mL and 37.23 ± 1.19 pg/mL, the inhibition at 10 µM (TK-10) was < 10% and the inhibition at 10 µM (SNB-75) was < 10%. The inhibition at 10 µM (ACHN) was < 10%, the inhibition at 10 µM (CAKI-1) was 18.4% and the inhibition at 10 µM (MALME-3M) was 14.1%. For the same compound, the inhibition at 10 µM (RPMI-8226) was 22.4%, the inhibition at 10 µM (SW-620) was < 10% and the inhibition at 10 µM (K-562) was 17.5%. The inhibition at 10 µM (SK-MEL-28) was < 10%, the inhibition at 10 µM (HL-60(TB)) was < 10% and the inhibition at 10 µM (OVCAR-3) was 22.7%. For the same compound, the IC50 (wild-type EGFR) was 52.4 ± 1.25 µM, the inhibition at 10 µM (HS 578T) was < 10% and the inhibition at 10 µM (OVCAR-4) was 16.4%. The inhibition at 10 µM (BT-549) was < 10%, the inhibition at 10 µM (UACC-257) was < 10% and the inhibition at 10 µM (SK-MEL-5) was 13.7%. The “TNF-α level, times lower than celecoxib” value [3, 4] was ~10 times, the “TNF-α level, times lower than diclofenac” value [3, 4] was ~17 times and the TNF-α concentration ([3]; LPS-activated RAW 264.7 cells treated with 25 µM of the compound) was 39.37 pg/mL and 39.37 ± 1.21 pg/mL. The inhibition at 10 µM (SK-OV-3) was < 10%, the inhibition at 10 µM (DU-145) was < 10% and the inhibition at 10 µM (HT29) was < 10%. It also gave an inhibition at 10 µM (SNB-19) of 11.4%.
